US12502428B1, “Immunotherapeutic composition for prevention of obesity, nonalcoholic fatty liver disease and hypertriglyceridemia, and methods of use and preparation thereof” (Utopia Therapeutics Pvt Ltd., priority 2025, dated 2025)
Where no end group is shown, it is not given here.

Assays:
[1] = Solubility of test item in phosphate buffered saline; assay type: physicochemical; conditions: in phosphate buffered saline (PBS; 1×)
Description: The dosage for rats extrapolated using standard guidelines.
(§1) IAEC approval: IAEC approval obtained for conducting the study; test item name: UT-GT-001; batch number: G2467-145; date of manufacture: 9 Nov.

high-fat fed mice model = experiment: Efficacy of the vaccine in high-fat fed mice model (diet induced obesity, DIO); assay type: in vivo, mice - Balb/c
Description: This model is often referred to as diet induced obesity (DIO) model.
as §1
The dosage for mice extrapolated using standard guidelines.
Formulation was freshly made just before dosing. […] Immunization of peptide is along with Freund's adjuvant by proper mixing. […] Once the drop test passed (the emulsion drop floated on water as intact), the final formulation was administered to mice with the volume of 300 μl.
Immunization and blood collection. After the acclimatization period, body weights of mice were recorded.
At every blood collection, 12 hours fasting was maintained for animals. […] Blood samples were given to the diagnostic center for different blood parameter analysis.

high-fat fed rat model = experiment: Efficacy of the vaccine in high-fat fed rat model
Description: Species details: species: rats (Wistar); justification: the rats (Wistar) are recognized by the international guidelines as the recommended test system and considerable historical data is available; source: good quality, healthy animals were procured from Hylasco Biotechnology India Pvt Ltd, (Reg. No. 1808/PO/RcBt/S/15/CPCSEA); animal age at the time of randomization: 07-08 weeks; animal weight at the time of randomization: males: 170±20 grams.
Husbandry and diet composition: number of animals: a total number of 6 animals (6M) per group; animal identification: individual cage tags; housing: animals were housed in stainless steel cages, one animal per cage; diet: pelleted rodent feed ad libitum; temperature: 30° C.; humidity: 30 to 70%; light: 12 hours light and 12 hours dark; water: RO purified water, ad libitum; cleaning of cages: twice in a week; acclimatization: the period of acclimatization was a minimum of seven days in the experimental room after the veterinary examination.
Formulation was freshly made just before dosing. For the primer dose of vaccine 3 mg peptide was dissolved in 1 ml of 1×PBS sterile solution to make 3 mg/mL stock solution. 0.4 mL of stock solution was combined with 0.4 mL of complete Freund's adjuvant by vigorous vortexing. For booster doses, the same procedure was followed except that the stock solution was combined with an equal amount of incomplete Freund's adjuvant instead of complete Freund's adjuvant.
Once the drop test was passed (the emulsion drop floated on water intact), the final formulation was administered to rats at 50 μL at each site of injection.
After acclimatization period, body weights of rats were recorded. The rats were randomized based on body weight after quarantine period into two groups n=6 per group as disease control (6M) and treatment group (6M). The disease control and treatment groups were given a high fat diet ad libitum for 8 consecutive weeks while the treatment group received the vaccine doses by intramuscular route as per study design as weekly once dosing for 7 consecutive weeks.
Initial primer dose was given only once during the treatment initiation and the remaining 6 booster doses were administered weekly once to the treatment group animals. Sham group animals received a normal rodent diet fortified with fat. Blood samples were collected on week 0, week 2, week 4, week 6 and week 8 from animals and analyzed for fasting blood glucose, triglycerides, total cholesterol and lipid profile. At every blood collection, 12 hour fasting was maintained for animals. On the final necropsy day, animals were subjected to euthanasia and major organs like liver, heart, lungs, kidneys, testes, spleen, and epididymal fat were collected, weighed and recorded. Half portion of liver was stored immediately in liquid nitrogen and kept at −80° C. for oil red stain and the remaining half was stored in 10% formalin solution, which was taken for histological evaluation by hematoxylin and eosin (H & E) staining.
Blood was centrifuged at 40° C., 4000 RPM for 15 minutes to separate serum and plasma. The serum and plasma samples were analyzed for serum biochemistry and fasting blood glucose respectively. Remaining serum samples were stored at −80° C. until dispatch to the test facility.
General clinical observations were conducted twice daily and detailed clinical observations were conducted once daily.

[2] = throughout study duration, rats

Row | Substance | solubility [1] [%] | abnormalities (clinical observation) (high-fat fed mice model) | adverse clinical signs (high-fat fed mice model) | high fat diet intake (high-fat fed mice model) | water intake (high-fat fed mice model) | critical organ weights (toxicology analysis) (high-fat fed rat model; 8 week study) | hematocrit (toxicology analysis) (high-fat fed rat model; 8 week study) | liver function (AST and ALT) (toxicology analysis) (high-fat fed rat model; 8 week study) | adverse clinical signs (high-fat fed rat model; clinical observations, rats) | hand held observations (high-fat fed rat model; clinical observations, rats) | home cage observations (high-fat fed rat model; clinical observations, rats) | nervous and muscle measurements and other observations (high-fat fed rat model; clinical observations, rats) | open field activity (high-fat fed rat model; [2]) | stimulus response (high-fat fed rat model; [2])
1 | GTX-SP-208: test item of the rat study: peptide, anti-hyperlipidemic agent, powder form, Galore Tx Pharmaceuticals; presumably the FATP1 peptide of the vaccine (MRAPGAGAASVVS) | 100 | – | – | – | – | – | – | – | – | – | – | – | – | –
2 | MRAPGAGAASVVS [vaccine, MRAPGAGAASVVS] | – | No abnormalities were observed | No adverse clinical signs were observed | normal | normal | no changes | no changes | improvement | no adverse clinical signs were observed | responded normally | no abnormalities were observed | No abnormalities observed | normal | normal
3 | UT-GT-001: test item of the mice study: peptide, anti-hyperlipidemic agent, powder form, Galore Tx Pharmaceuticals; presumably the FATP1 peptide of the vaccine (MRAPGAGAASVVS) | 100 | – | – | – | – | – | – | – | – | – | – | – | – | –
